Here are results for one compound from US20250382251A1, “ALDEHYDE COMPOSITION” (MITSUBISHI GAS CHEMICAL COMPANY, INC., priority 2022, published 2025).

Data set [1] concerns Bhas42 cells. The data set is described as follows: Carcinogenicity prediction test (transformation test, OECD 231GD). Type of data set: cell-based. The settings on record: in vitro transformation test using Bhas42 cells, negative or positive. As for the experimental part: Using the aldehyde compositions obtained in Examples and Lilial (3-(p-tert-butylphenyl)-2-methylpropanal), a transformation test (an in vitro carcinogenicity prediction test using Bhas42 cells) was performed based on OECD 231GD to determine whether the carcinogenicity was negative or positive. When the result of this test is negative, it is predicted that there is no possibility of causing carcinogenicity, and safety is high.

A short description of data set [2]: Evaluation of threshold of smell. The note with it: diluted with dipropylene glycol, 10 to 0.001 ppm; lower limit concentration at which the smell can be identified.

As for `CC(C=O)Cc1ccc(C(C)(C)C)cc1` (centres unmarked) [Comparative Example 2, 3-(p-tert-butylphenyl)-2-methylpropanal], in data set [1], the Carcinogenicity prediction test result is reported as “Positive”. In data set [2], the “Threshold of smell (ppm)” value was found to be 1 ppm.
